According to ChEMBL document CHEMBL1148865, “A long-acting selective neuropeptide Y2 receptor PEGylated peptide agonist reduces food intake in mice” (Bioorg Med Chem Lett, 2007):

Experiments:
[1] = target: T1, Neuropeptide Y receptor type 2 (Homo sapiens, UniProt P49146); test: Displacement of [125I]PYY from human NPY2 receptor in KAN-TS cells by SPA assay; format: cell-based
T1 sequence (P49146 whole entry): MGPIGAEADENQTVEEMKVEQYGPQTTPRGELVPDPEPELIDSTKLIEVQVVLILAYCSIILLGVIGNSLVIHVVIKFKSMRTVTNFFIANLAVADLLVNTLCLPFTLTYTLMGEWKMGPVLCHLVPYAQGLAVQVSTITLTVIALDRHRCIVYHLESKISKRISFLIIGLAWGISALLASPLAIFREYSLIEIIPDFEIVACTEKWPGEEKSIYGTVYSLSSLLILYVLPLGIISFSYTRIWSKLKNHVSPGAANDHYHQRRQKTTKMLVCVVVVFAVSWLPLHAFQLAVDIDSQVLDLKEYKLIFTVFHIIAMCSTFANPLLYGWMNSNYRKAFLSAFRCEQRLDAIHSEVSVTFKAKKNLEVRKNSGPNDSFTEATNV

[2] = target: T1, Neuropeptide Y receptor type 2; test: Agonist activity at human NPY2 receptor in KAN-TS cells by [35S]GTP-gamma-S binding assay; format: functional, cell-based
[3] = target: T2, Neuropeptide Y receptor type 2 (Homo sapiens) (UniProt P49146); test: Agonist activity at human NPY2 receptor in KAN-TS cells at 1 uM by [35S]GTP-gamma-S binding assay; format: functional, cell-based
T2 sequence (whole entry): T1 sequence (P49146 whole entry)

[4] = target: T3, Neuropeptide Y receptor type 5 (Homo sapiens, UniProt Q15761); test: Displacement of [125I]PYY from human NPY5 receptor in HEK293 cells; format: cell-based
T3 sequence (Q15761 whole entry): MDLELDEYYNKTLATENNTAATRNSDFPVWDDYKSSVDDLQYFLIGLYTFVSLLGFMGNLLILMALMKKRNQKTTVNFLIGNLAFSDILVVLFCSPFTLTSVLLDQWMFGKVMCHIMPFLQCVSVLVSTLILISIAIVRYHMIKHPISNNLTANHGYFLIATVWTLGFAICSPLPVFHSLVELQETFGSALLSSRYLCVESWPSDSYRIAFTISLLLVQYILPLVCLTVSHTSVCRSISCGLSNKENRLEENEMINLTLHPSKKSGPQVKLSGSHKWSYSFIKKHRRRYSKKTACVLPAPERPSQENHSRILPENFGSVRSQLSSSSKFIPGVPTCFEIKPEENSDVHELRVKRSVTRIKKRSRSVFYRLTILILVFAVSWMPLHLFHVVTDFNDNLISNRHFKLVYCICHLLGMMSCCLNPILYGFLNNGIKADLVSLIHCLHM

[5] = target: T4, Neuropeptide Y receptor type 1 (Homo sapiens, UniProt P25929); test: Displacement of [125I]PYY from human NPY1 receptor in SK-N-MC cells; format: cell-based
T4 sequence (P25929 whole entry): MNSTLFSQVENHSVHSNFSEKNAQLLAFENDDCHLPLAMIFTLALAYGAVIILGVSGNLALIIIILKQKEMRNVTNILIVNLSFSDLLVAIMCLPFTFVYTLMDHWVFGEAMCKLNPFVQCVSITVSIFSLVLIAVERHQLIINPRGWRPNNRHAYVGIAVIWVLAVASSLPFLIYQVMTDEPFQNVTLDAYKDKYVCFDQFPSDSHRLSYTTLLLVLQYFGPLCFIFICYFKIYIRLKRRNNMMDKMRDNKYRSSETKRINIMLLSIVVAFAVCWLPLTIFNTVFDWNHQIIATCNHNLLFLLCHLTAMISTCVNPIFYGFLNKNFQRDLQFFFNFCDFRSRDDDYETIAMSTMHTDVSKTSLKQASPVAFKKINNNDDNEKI

Mus musculus = test: Reduction of food intake in C57BL/6 mouse at 10 mg/kg, sc after 1 to 24 hrs; format: functional; set-up: scale not given: the % may be the effect or the level left; conditions: route subcutaneous

Ki [1] [nM] | EC50 [2] [nM] | E/Emax [3] [%] | Ki [4] [nM] | Ki [5] [nM] | Substance | Activity (Mus musculus) [%]
8.2 | 33 | 94 | > 1000 | > 1000 | Ac-CLRHYLNLLTRQRY-NH2 | 
200 | 160 | 81 | > 1000 | > 1000 | Ac-LRHYLNLLTRQRYC-NH2 | 

Substance | Ki [1] [nM] | EC50 [2] [nM] | E/Emax [3] [%] | Ki [4] [nM] | Ki [5] [nM] | Activity (Mus musculus) [%]
Ac-LRHYLNLLTRQRY-NH2 | 5 | 6 | 100 | > 1000 | 210 | 6
